Measurements reported in patent US10687529B2, “Nematotoxic composition of synergistic effect, use of a nematotoxic composition of synergistic effect” (EMPRESA BRASILEIRA DE PESQUISA AGROPECUARIA-EMBRAPA, priority 2012, dated 2020).

Key:
[1] = tested on: second-stage juveniles (J2) of M. incognita; test: in vitro bioassay against second-stage juveniles (J2), 48 hours' exposure; format: in vivo; settings: for % paralyzed namatodes: 0.17 g/L (of each compound in the composition)
Method: FIG. 1—effect of the aqueous crude extracts of seeds of antagonistic plants on (J2) of M. incognita. The bars represent the percentage of live nematodes after 48 hours' exposure. Concentration of 1 mg of each extract for a final volume of 0.3 mL and 100 second-stage juveniles was used in the bioassay in triplicate, having distilled water as negative control. […]
(§1) FIG. 9—(A) Bioassay showing the effect of the commercial compounds on second-stage juveniles of M. incognita after 48 hours' exposure. 1—Control dH20, 2—DECE, 3—Glycose 10%, 4—Glycose 20%, 5—D-Pinitol (80 ug), 6—D-Pinitol (150 ug), 7—L-canavanina (80 ug), 8—L-canavanina (150 ug), 9—palmitic acid (80 ug), 10—palmitic acid (150 ug), 11—citric acid (80 ug), 12—citric acid (150 ug), 13—malic acid (80 ug), 14—malic acid (150 ug), 15—cis-aconitic acid (80 ug), 16—cis-anonitic acid (150 ug), 17—trans-anonitic acid (80 ug), 18—trans-aconitic acid (150 ug), 19—50 mM Tris/HCl pH 8, 20—50 mM acetic acid pH 5, 21—L-phenylamine (80 ug), 22—L-phenylamine (150 ug), 23—L-methionine (80 ug), 24—L-methionine (150 ug), 25—L-tryptophan (80 ug), 26—L-tryptophan (150 ug), 27—S-carboxymethylcistein (80 ug), 28—S-carboxymethylcisteine (150 ug), 29—Zantotoxine (80 ug), 30—Zantotoxine (150 ug), and 31—Glucose 20%+L-canavanine (15)ug). B—Evaluation of the effect of the different commercial compounds after the recovery assay using distilled water.
FIG. 10—(A) Bioassay showing the effect of the commercial compounds and their compositions on second-stage juveniles of M. incognita […] after 48 hours' exposure. C+ positive control (extract); C—: negative control (water); 2: palmitic acid; 3: S-carboxymethylcisteine; 4: trans-aconitic acid; 5: glucose. […] (B)—Evaluation of the effect of the different commercial compounds and their compositions after the recovery assay using distilled water. C+ positive control (extract); 2: palmitic acid; 3: s-carboxymethylcisteine; 4: trans-aconitic acid; 5: glucose.

[2] = tested on: J2 of M. incognita; test: recovery assay using distilled water, certifying nematicidal or nematostatic effect; format: in vivo
Method: as §1
FIG. 10—(A) Bioassay showing the effect of the commercial compounds and their compositions on second-stage juveniles of M. incognita […] after 48 hours' exposure. C+ positive control (extract); C—: negative control (water); 2: palmitic acid; 3: S-carboxymethylcisteine; 4: trans-aconitic acid; 5: glucose. Concentrations of the compositions: 3+4, 3+5=0.25 g/L (each active compound of the composition); 3+4+5=0.17 g/L each active compound of the composition. (B)—Evaluation of the effect of the different commercial compounds and their compositions after the recovery assay using distilled water. C+ positive control (extract); 2: palmitic acid; 3: s-carboxymethylcisteine; 4: trans-aconitic acid; 5: glucose. Concentrations of the compositions: 3+4, 3+5, 4+5=0.25 g/L (each active compound of the composition); 3+4+5=0.17 g/L each active compound of the composition.

Question: How did the J2 paralyzed ([1]; 80 μg/300 μL) turn out when CO[C@H]1[C@H](O)[C@@H](O)[C@@H](O)[C@H](O)[C@@H]1O [D-pinitol] was run?
Answer: Its J2 paralyzed is “did not exhibit any toxic effect”.

Question: And the J2 paralyzed ([1]; 150 μg/300 μL)?
Answer: The J2 paralyzed was “did not exhibit any toxic effect”.

Question: Which “juveniles remaining paralyzed after the recovery assay (nematicidal activity)” value ([2]; 105 μg/300 μL) does the source give for N=C(N)NOCC[C@H](N)C(=O)O [L-canavanine] here?
Answer: The value was 25%.

Question: What about the J2 paralyzed ([1]; 80 μg/300 μL) of the same compound?
Answer: The J2 paralyzed was “did not exhibit any nematotoxic activity”.

Question: Which results are given for N[C@@H](Cc1ccccc1)C(=O)O [L-phenylamnine]?
Answer: J2 paralyzed ([1]; 80 μg/300 μL): not capable of affecting the J2; J2 paralyzed ([1]; 150 μg/300 μL): not capable of affecting the J2

Question: Which results are given for N[C@@H](Cc1c[nH]c2ccccc12)C(=O)O [L-triptofane]?
Answer: J2 paralyzed ([1]; 80 μg/300 μL): not capable of affecting the J2; J2 paralyzed ([1]; 150 μg/300 μL): not capable of affecting the J2

Question: For COc1c2occc2cc2ccc(=O)oc12 [Xantotoxin], which “J2 recovering the mobility after the recovery test” value (“J2 recovering the mobility” below) ([2]; 80 μg/300 μL) is on record?
Answer: The value was “did not recover the mobility”.

Question: And the “J2 recovering the mobility” value ([2]; 150 μg/300 μL)?
Answer: Its value is “did not recover the mobility”.

Question: What about the J2 paralyzed ([1]; 80 μg/300 μL) of the same compound?
Answer: Its J2 paralyzed is 87%.

Question: What about the J2 paralyzed ([1]; 150 μg/300 μL) of the same compound?
Answer: Its J2 paralyzed is 87%.

Question: How did the “nematicidal activity after the recovery assay” value ([2]; 150 μg/300 μL) turn out when O=C(O)/C=C(/CC(=O)O)C(=O)O [cis-aconitic acid] was run?
Answer: Its value is 40%.

Question: And the J2 paralyzed ([1]; 80 μg/300 μL)?
Answer: Its J2 paralyzed is “very low percentage”.

Question: For O=C(O)CC(O)(CC(=O)O)C(=O)O [citric acid], which “nematicidal activity after the recovery assay” value ([2]; 150 μg/300 μL) is on record?
Answer: Its value is 25%.

Question: What about the J2 paralyzed ([1]; 80 μg/300 μL) of the same compound?
Answer: Its J2 paralyzed is “very low percentage”.

Question: Which “nematicidal activity after the recovery assay” value ([2]; 150 μg/300 μL) does the source give for O=C(O)CC(O)C(=O)O (stereo not drawn) [malic acid] here?
Answer: The value was 18%.

Question: And the J2 paralyzed ([1]; 80 μg/300 μL)?
Answer: The J2 paralyzed was “very low percentage”.

Question: What does the source list for CCCCCCCCCCCCCCCC(=O)O [palmitic acid]?
Answer: J2 recovering the mobility after the recovery test ([2]; 80 μg/300 μL): 90%; J2 recovering the mobility after the recovery test ([2]; 150 μg/300 μL): 90%; J2 paralyzed ([1]; 80 μg/300 μL): 98%

Question: Which results are given for O=C(O)/C=C(\CC(=O)O)C(=O)O [trans-aconitic acid]?
Answer: nematicidal activity after the recovery assay ([2]; 150 μg/300 μL): 98%; J2 paralyzed ([1]; 80 μg/300 μL): 90%; % paralyzed namatodes [1]: 11.12%; % of paralyzed nematodes ([1]; 0.25 g/L (of each compound in the composition)): 27.08%

Question: S-carboxymethylcisteine was tested. Which “J2 recovering the mobility” value ([2]; 80 μg/300 μL) did it give?
Answer: Its value is “most J2 recovering the movement”.

Question: What about the “J2 recovering the mobility” value ([2]; 150 μg/300 μL) of the same compound?
Answer: The value was “most J2 recovering the movement”.

Question: What about the J2 paralyzed ([1]; 80 μg/300 μL) of the same compound?
Answer: The J2 paralyzed was “about 90%”.

Question: What about the J2 paralyzed ([1]; 150 μg/300 μL) of the same compound?
Answer: The J2 paralyzed was “about 90%”.

Question: What about the “% paralyzed namatodes” value [1] of the same compound?
Answer: Its value is 43.03%.
